Patent US20090047223A1, “Improvements in or Related to Organic Compoounds” (GIVAUDAN SA, priority 2005, published 2009)
Counter-ions that a name gives are not always drawn. Like-named read-outs stand apart in the source and are kept apart here.

Tests used:
[1] = Reduction of methanethiol (MeSH) in headspace, phosphate buffer pH 7, GC; details: for reactivity towards MeSH / ability to bind MeSH (in words): aqueous environment; for % reduction of MeSH in the headspace: MeSH 100 μM, phosphate buffer pH 7, 1 h
Experimental: (§1) The compounds listed in Table 1 are dissolved to a final concentration of 100 μM, 200 μM and 500 μM in 1 ml of phosphate buffer at pH 7 in a closed GC-headspace vial. MeSH is added to a final concentration of 100 μM and the mixture is equilibrated for 1 h. Samples are heated to 75° C. and 1 ml of the headspace above the reaction mixture is injected onto a column suitable for separation of sulphur compounds (SPW1-sulfur, Supelco). The temperature program is set to 1 min initial temperature at 50° C., heating at a rate of 10° C./min to 100° C. and further heating at 20° C./min to 200° C. The headspace level of MeSH is compared to a blank sample, i.e. a sample without the active compound.

[2] = Reduction of methanethiol (MeSH) in saliva, headspace GC; details: compound 500 μM, MeSH 200 μM
Experimental: as §1
The compounds given in Table 3 are dissolved in GC-headspace vials in saliva donations pooled form four donors at a concentration of 500 μM. After a conditioning period of 1 and 2.5 h respectively, MeSH is added at a concentration of 200 μM, and 1 hour later MeSH level in the headspace is determined as described in Example 8.

[3] = Reduction of allyl mercaptan, monobromobimane fluorescence; details: 200 μM allyl mercaptan-solution, pH 7, 15 min
Experimental: The compounds given in Table 2 are dissolved in DMSO to a final concentration of 100 mM and serially diluted in the same solvent. Aliquots of the solutions of different active compounds (2.5 μl) are distributed to individual wells of a microtiter plate. 100 μl of a 200 μM allyl mercaptan-solution (in 50 mM phosphate buffer, pH 7) are added to each well and the plates are immediately sealed. After 15 min of incubation, the unreacted allyl mercaptan is derivatised by adding to each well of the microtiter plate 100 μl of a monobromobimane (obtained from Fluka, Buchs, Switzerland) stock solution (0.5 mM in 1 M NaCO3, pH 8.8). After 10 min the fluorescence in the wells of the microtiter plates is measured on a Flex-station (Molecular devices, Sunnyvale, Calif., USA) with an excitation wavelength of 385 nm and an emission wavelength of 480 nm. After the fluorescence determination, from all the wells the blank value containing only buffer and DMSO is subtracted. The fluorescence of control wells with allyl mercaptan and DMSO only is then compared to the fluorescence in wells containing potential allyl mercaptan trapping agents (compound 1 to 5) to calculate the inhibition in percent.

[4] = 500 μM, pH 7
Experimental: Samples of 0.50 ml are withdrawn at the indicated time intervals and extracted with MTBE (0.50 ml). The amount of released ethyl vanillin is determined by quantitative GC-analysis.

[5] = after 2½ h conditioning in pooled saliva
[6] = after 1 h conditioning in pooled saliva

Structure (SMILES) | reactivity towards MeSH / ability to bind MeSH (in words) [1] | % reduction of MeSH in the headspace ([1]; compound 100 μM) | % reduction of MeSH in the headspace ([1]; compound 200 μM) | % reduction of MeSH in the headspace ([1]; compound 500 μM) | Reduction of MeSH (%) [2, 5] | Reduction of MeSH (%) [2, 6] | % reduction of allyl mercaptan ([3]; test concentration 31.25 μM) | % reduction of allyl mercaptan ([3]; test concentration 62.5 μM) | % reduction of allyl mercaptan ([3]; test concentration 125 μM) | % reduction of allyl mercaptan ([3]; test concentration 250 μM) | % reduction of allyl mercaptan ([3]; test concentration 500 μM) | % reduction of allyl mercaptan ([3]; test concentration 1000 μM) | % of theory (released ethyl vanillin) ([4]; 30 min) | conc. of released ethy vanillin ([4]; 30 min) | % of theory (released ethyl vanillin) ([4]; 60 min) | conc. of released ethy vanillin ([4]; 60 min) | % of theory (released ethyl vanillin) ([4]; 120 min) | conc. of released ethy vanillin ([4]; 120 min)
CC1CCC(C(C)C)C(OC(=O)/C=C/C(=O)O)C1 (stereo not shown) [B, reference compound] | low reactivity | 11.9% | 1.7% | 0% |  |  |  |  |  |  |  |  |  |  |  |  |  | 
CC1CCC(C(C)C)C(OC(=O)/C=C/C(=O)OCC(O)CO)C1 (stereo not shown) [Compound 1, 2,3-Dihydroxypropyl 2-isopropyl-5-methylcyclohexyl fumarate] |  | 81.5% | 73.7% | >90% | 40.5% | 72.7% | 0.1% | 9.9% | 22.5% | 43.2% | 68.8% | 86.0% |  |  |  |  |  | 
CCOC(=O)/C=C/C(=O)Oc1c(C)occc1=O [Compound 2, Ethyl 2-methyl-4-oxo-4H-pyran-3-yl fumarate] |  | >92% | >92% | >90% | 32.5% | 75.9% | 11.1% | 31.9% | 65.3% | 98.4% | 100.0% | 100.0% |  |  |  |  |  | 
CCOC(=O)/C=C/C(=O)Oc1ccc(C=O)cc1OCC [Compound 3, 2-Ethoxy-4-formylphenyl ethyl fumarate] |  | >90% | >92% | >90% | 73.3% | 36.2% | 12.8% | 32.7% | 74.5% | 99.8% | 100.0% | 100.0% | 38% | 192 µM | 47% | 235 µM | 62% | 310 µM
CCOC(=O)/C=C/C(=O)Oc1ccccc1C(=O)OC [Compound 4, Methyl 2-((E)-3-(ethoxycarbonyl)acryloyloxy)benzoate] |  | >90% | >92% | >90% | 74.3% | 28.1% | 14.4% | 32.3% | 67.6% | 95.3% | 99.8% | 100.0% |  |  |  |  |  | 
CC1CCC(C(C)C)C(OC(=O)/C=C/C(=O)OCC(O)C(O)C(O)C(O)CO)C1 (stereo not shown) [Compound 5, 2,3,4,5,6-Pentahydroxyhexyl 2-isopropyl-5-methylcyclohexyl fumarate] |  | 71.6% |  | >90% | 75.1% | 48.2% | 1.0% | 8.1% | 19.3% | 38.4% | 64.4% | 89.3% |  |  |  |  |  | 
CCOC(=O)/C=C/C(=O)OCC=Cc1ccccc1 [Compound 6, Cinnamyl Ethyl Fumarate] |  | 45.8% |  | 85% |  |  |  |  |  |  |  |  |  |  |  |  |  | 
CC/C=C\CCOC(=O)/C=C/C(=O)OCC [Compound 7, Ethyl (Z)-hex-3-enyl fumarate] |  | 33% | 39.2% | 54.1% |  |  |  |  |  |  |  |  |  |  |  |  |  | 
CCCCCCOC(=O)/C=C/C(=O)OCCCCCC [Dihexyl fumarate (A), Dihexyl fumarate, reference compound] | very low reactivity | 4.3% | 1.9% | 10.9% |  |  |  |  |  |  |  |  |  |  |  |  |  | 
